From ChEMBL document CHEMBL4616664, “Antineoplastic Agents. 607. Emetine Auristatins” (2020)
Where a name gives a salt, the structure may show the parent alone.

How the values were obtained:
Type in all cases: functional
[1] = tested on: DU-145; assay: Growth inhibition of human DU145 cells incubated for 48 hrs by sulforhodamine B assay; conditions: DU-145, 48 h
[2] = tested on: BXPC-3; assay: Growth inhibition of human BxPC3 cells incubated for 48 hrs by sulforhodamine B assay; conditions: BXPC-3, 48 h
[3] = tested on: SF-268; assay: Growth inhibition of human SF268 cells incubated for 48 hrs by sulforhodamine B assay; conditions: SF-268, 48 h
[4] = tested on: MCF7; assay: Growth inhibition of human MCF7 cells incubated for 48 hrs by sulforhodamine B assay; conditions: MCF7, 48 h
[5] = tested on: NCI-H460; assay: Growth inhibition of human NCI-H460 cells incubated for 48 hrs by sulforhodamine B assay; conditions: NCI-H460, 48 h
[6] = tested on: KM-20L2; assay: Growth inhibition of human KM20L2 cells incubated for 48 hrs by sulforhodamine B assay; conditions: KM-20L2, 48 h
[7] = tested on: Panel NCI-60 (60 carcinoma cell lines); assay: Growth inhibition of human NCI60 cells

Row | SMILES | GI50 [1] | GI50 [2] | GI50 [3] | GI50 [4] | GI50 [5] | GI50 [6] | GI50 [7] [nM]
1 | CC[C@H]1CN2CCc3cc(OC)c(OC)cc3[C@@H]2C[C@@H]1C[C@@H]1c2cc(OC)c(OC)cc2CCN1CCNC(=O)[C@H](C)[C@@H](OC)[C@@H]1CCCN1C(=O)C[C@@H](OC)[C@H]([C@@H](C)CC)N(C)C(=O)[C@@H](NC(=O)[C@H](C(C)C)N(C)C)C(C)C | 181 nM | 1900 nM | 272 nM | 118 nM | 4530 nM | 362 nM | 
2 | CC[C@H]1CN2CCc3cc(OC)c(OC)cc3[C@@H]2C[C@@H]1C[C@@H]1c2cc(OC)c(OC)cc2CCN1C(=O)CCN.O=C(O)C(F)(F)F.O=C(O)C(F)(F)F | 10.1 µg/mL | 10.3 µg/mL | > 10 µg/mL | > 10 µg/mL | > 10 µg/mL | > 10 µg/mL | 
3 | CC[C@H]1CN2CCc3cc(OC)c(OC)cc3[C@@H]2C[C@@H]1C[C@@H]1c2cc(OC)c(OC)cc2CCN1C(=O)[C@H](C)[C@@H](OC)[C@@H]1CCCN1 | 3420 nM | 2390 nM | 3650 nM | 1600 nM | 5700 nM | 3420 nM | 
4 | CC[C@H]1CN2CCc3cc(OC)c(OC)cc3[C@@H]2C[C@@H]1C[C@@H]1c2cc(OC)c(OC)cc2CCN1C(=O)CCNC(=O)OC(C)(C)C | > 10 µg/mL | > 10 µg/mL | > 10 µg/mL | 10 µg/mL | > 10 µg/mL | > 10 µg/mL | 
5 | CC[C@H]1CN2CCc3cc(OC)c(OC)cc3[C@@H]2C[C@@H]1C[C@@H]1c2cc(OC)c(OC)cc2CCN1C(=O)[C@H](C)[C@@H](OC)[C@@H]1CCCN1C(=O)C[C@@H](OC)[C@H]([C@@H](C)CC)N(C)C(=O)[C@@H](NC(=O)[C@H](C(C)C)N(C)C)C(C)C | 12.3 nM | 386 nM | 30.2 nM | 35.8 nM | 198 nM | 35.8 nM | 
6 | CC[C@H]1CN2CCc3cc(OC)c(OC)cc3[C@@H]2C[C@@H]1C[C@@H]1c2cc(OC)c(OC)cc2CCN1C(=O)CCNC(=O)[C@H](C)[C@@H](OC)[C@@H]1CCCN1C(=O)OC(C)(C)C | 10 µg/mL | > 10 µg/mL | > 10 µg/mL | > 10 µg/mL | > 10 µg/mL | > 10 µg/mL | 
7 | CC[C@H]1CN2CCc3cc(OC)c(OC)cc3[C@@H]2C[C@@H]1C[C@@H]1c2cc(OC)c(OC)cc2CCN1C(=O)CCNC(=O)[C@H](C)[C@@H](OC)[C@@H]1CCCN1C(=O)C[C@@H](OC)[C@H]([C@@H](C)CC)N(C)C(=O)[C@@H](NC(=O)[C@H](C(C)C)N(C)C)C(C)C | 97.2 nM | 3800 nM | 186 nM | 159 nM | 2830 nM | 194 nM | 
8 | CC[C@H]1CN2CCc3cc(OC)c(OC)cc3[C@@H]2C[C@@H]1C[C@H]1NCCc2cc(OC)c(OC)cc21 [EMETINE HYDROCHLORIDE] | 36.1 nM | 56 nM |  | 54.2 nM |  | 47 nM | 
9 | CC[C@H]1CN2CCc3cc(OC)c(OC)cc3[C@@H]2C[C@@H]1C[C@H]1NCCc2cc(OC)c(OC)cc21 [EMETINE] |  |  |  |  |  |  | 27
